Assay results: patent US4814329A, “Antihyperlipoproteinemic 5-substituted sulfur-containing benzimidazole derivatives” (Richter Gedeon Vegyeszeti Gyar R.T., priority 1985, dated 1989)
Counter-ions that a name gives are not always drawn. Like-named read-outs stand apart in the source and are kept apart here.

How the values were obtained:
[1] = system: rats with the cholesterol diet; test: in vivo test in rats with the cholesterol diet, 10 day treatments (Table 2); details: rat; for LDL + VLDL percentile change / Serum cholesterol percentile change / triglyceride percentile change / HDL cholesterol percentile change: 10 day treatment
Protocol: […] (Schurr, P. E.; Schultz, J. R., Day, D. E.; Atherosclerosis Drug Discovery Ed.: C. E. Day, Plenum, New York 215 (1976) and Acta Pharm. Hung., 49, 182. (1979) During this time the total cholesterol level of the serum increased with 200-250% compared to the normal level, while the amount of the HDL chloesterol diminished by 45-50%. Groups consisting of six animals were formed. […] Then after a 18 hour starving the animals were bled to death under etheric narcosis on the 8th day. The blood samples were centrifuged and the serum total cholesterol and the HDL cholesterol were determined by Backmann enzymatic test, while the triglyceride concentration of the serum was determined by Van Handel's method (J. Lab.: Clin. Med. 41, 486 (1953). The amount of the LDL+VLDL was measured by manganese precipitation turbidimetrically (Schurr, P. E., Schulz, J. R., Day, C. E.: Atherosclerosis Drug Discovery Ed.: C. E. Day, Plenum Press, New York 215 (1976). The antiaggreagtion activity was measured in vitro on human plasm being rich in thrombocytes by a Chrono-log aggregometer. The aggregation was induced by ADP, adrenaline, collagen and arachidonic acid. […]. The lipidperoxidation was induced by N-ethyl-alenicimide (Arzneimittel-Forschung 29, 981 (1979).
The affect of compound no. 0202479 to the rats with the
cholesterol diet in 10 day treatments

[2] = acute toxicity, oral, mice; set-up: species or system male and female mice; details: mouse, in vivo, observed 14 days
Text: (§1) The acute toxicity of this compound was examined on male and female mice and rats by oral administration.

[3] = system: washed human thrombocyte suspension; test: inhibition of lipidperoxidation, thiobarbituric acidic method; format: cell-based; details: induced by N-ethyl-alenicimide, read-out: medium inhibiting concentration, lipidperoxidation
Protocol: Whistar hannover male rats weighing 140-160 g were fed for 7 days with a rat fodder supplemented with 1.5% of cholesterol, 0.5% of sodium cholate and 5% of solid fat. […] The blood samples were centrifuged and the serum total cholesterol and the HDL cholesterol were determined by Backmann enzymatic test, while the triglyceride concentration of the serum was determined by Van Handel's method (J. Lab.: Clin. Med. 41, 486 (1953). The amount of the LDL+VLDL was measured by manganese precipitation turbidimetrically (Schurr, P. E., Schulz, J. R., Day, C. E.: Atherosclerosis Drug Discovery Ed.: C. E. Day, Plenum Press, New York 215 (1976). The antiaggreagtion activity was measured in vitro on human plasm being rich in thrombocytes by a Chrono-log aggregometer. The aggregation was induced by ADP, adrenaline, collagen and arachidonic acid. […]

[4] = system: human plasm being rich in thrombocytes; test: in vitro antiaggregation activity (Chrono-log aggregometer; ADP, adrenaline, collagen, arachidonic acid); format: cell-based; details: for inhibition at 250 µM / inhibition at 500 µM / inhibition at 1000 µM: Homo sapiens
Text: Whistar hannover male rats weighing 140-160 g were fed for 7 days with a rat fodder supplemented with 1.5% of cholesterol, 0.5% of sodium cholate and 5% of solid fat. (Schurr, P. E.; Schultz, J. R., Day, D. E.; Atherosclerosis Drug Discovery Ed.: C. E. Day, Plenum, New York 215 (1976) and Acta Pharm. Hung., 49, 182. (1979) During this time the total cholesterol level of the serum increased with 200-250% compared to the normal level, while the amount of the HDL chloesterol diminished by 45-50%. Groups consisting of six animals were formed. The compounds of the invention were administered orally starting on the fourth day of the addition of the cholesterol fodder and it was continued by the end of the experiments, by the seventh day, in one or two doses. Then after a 18 hour starving the animals were bled to death under etheric narcosis on the 8th day. The blood samples were centrifuged and the serum total cholesterol and the HDL cholesterol were determined by Backmann enzymatic test, while the triglyceride concentration of the serum was determined by Van Handel's method (J. Lab.: Clin. Med. 41, 486 (1953). The amount of the LDL+VLDL was measured by manganese precipitation turbidimetrically (Schurr, P. E., Schulz, J. R., Day, C. E.: Atherosclerosis Drug Discovery Ed.: C. E. Day, Plenum Press, New York 215 (1976). The antiaggreagtion activity was measured in vitro on human plasm being rich in thrombocytes by a Chrono-log aggregometer. The aggregation was induced by ADP, adrenaline, collagen and arachidonic acid. The determination of the inhibition of the lipidperoxidation was carried out by thiobarbituric acidic method with the aid of washed human thrombocyte suspension. The lipidperoxidation was induced by N-ethyl-alenicimide (Arzneimittel-Forschung 29, 981 (1979).

[5] = acute toxicity, oral, rats; set-up: species or system male and female rats; details: rat, in vivo, observed 14 days
Text: as §1

[6] = ADP induced, read-out: Aggregation inhibition, ADP
[7] = adrenaline induced, read-out: Aggregation inhibition, Adrenaline
[8] = collagen induced, read-out: Aggregation inhibition, Collagene

## C=CCSc1nc2ccc(Cc3ccccc3)cc2[nH]1 [compound 0202479, 5-Benzyl-2-(2-propenylthio)-benzimidazole hydrobromide, hydrochloride and base]
[1]
  effectiveness, in words: remarkably effective
[1]; 10.0 mg/kg p.o.
  LDL + VLDL percentile change: -20.8 percentile change
  Serum cholesterol percentile change: -7.8 percentile change
  triglyceride percentile change: -3.1 percentile change
[1]; 10.0 mg/kg p.o., * 0.01 P 0.05
  HDL cholesterol percentile change: +47.7 percentile change
[1]; 30.0 mg/kg p.o.
  HDL cholesterol percentile change: +40.1 percentile change
[1]; 30.0 mg/kg p.o., * 0.01 P 0.05
  Serum cholesterol percentile change: -41.5 percentile change
[1]; 30.0 mg/kg p.o., ** P 0.01
  LDL + VLDL percentile change: -48.5 percentile change
  triglyceride percentile change: -47.7 percentile change
[1]; 100.0 mg/kg p.o.
  Serum cholesterol percentile change: -66.3 percentile change
[1]; 100.0 mg/kg p.o., ** P 0.01
  HDL cholesterol percentile change: +56.1 percentile change
  LDL + VLDL percentile change: -80.5 percentile change
  triglyceride percentile change: -55.8 percentile change
[2]
  LD50 at 336 h: 960 mg/kg
[3]
  IC50: 24 µM
[4]; ADP and adrenaline
  inhibition of aggregation caused by ADP and adrenaline, in words: inhibited by the compound-similarly to Clofibrate--in the second phase
[4]; read-out: inhibition of aggregation induced by arachidonic acid
  inhibition at 250 µM: 100%
[4]; [6]
  inhibition at 250 µM: 20%
  inhibition at 500 µM: 59%
  inhibition at 1000 µM: 66%
[4]; [7]
  inhibition at 250 µM: 9%
  inhibition at 500 µM: 16%
  inhibition at 1000 µM: 73%
[4]; arachidonic acid induced, read-out: Aggregation inhibition, Arachidonic acid
  inhibition at 250 µM: 100%
[4]; [8]
  inhibition at 250 µM: 6%
  inhibition at 500 µM: 16%
  inhibition at 1000 µM: 39%
[5]
  LD50 at 336 h: > 2000 mg/kg
